The subject of experiment [1] is Staphylococcus aureus 133. It is filed as cell-based. How it is done: (§1) Determination of the Minimum Inhibitory Concentration (MIC):
(§2) The MIC is determined in the liquid dilution test in accordance with the NCCLS guidelines. Overnight cultures of Staphylococcus aureus 133, Enterococcus faecalis 27159, E. faecium 4147 and Streptococcus pneumoniae G9a are incubated with the desired test substances in a 1:2 dilution series. The MIC determination is carried out with a cell count of 10^5 microbes per ml in Isosensitest medium (Difco, Irvine/USA), with the exception of S. pneumoniae which is tested in BHI broth (Difco, Irvine/USA) with 10% bovine serum with a cell count of 10^6 microbes per ml. The cultures are incubated at 37° C. for 18-24 hours, S. pneumoniae in the presence of 10% CO2.
(§3) The MIC is defined as the lowest concentration of each substance at which visible bacterial growth no longer occurs. The MIC values are reported in μg/ml.

The test system of experiment [2] is Streptococcus pneumoniae G9a. It counts as cell-based. How it is done: as §1, §2, §3
For experiment [3], the system named is E. faecalis ICB 27159. It is filed as cell-based, Enterococcus faecalis. How it is done: as §1, §2, §3
In experiment [4] the test system is E. faecium L4001. It counts as cell-based, Enterococcus faecium.
Setting [5] is: Isosensitest medium, 10^5 microbes per ml, 37° C., 18-24 hours.
The mark [6] stands for this setting: BHI broth with 10% bovine serum, 10^6 microbes per ml, 10% CO2, 37° C., 18-24 hours.

The structures appear in SMILES notation. Converted amounts (≈) assume the structure as drawn. Like-named read-outs stand apart in the source and are kept apart here. *1 amine or outer side, *2 acyl side, *3 side chain or, on linkers, in order; H or OH if unused. Where a SMILES comes first, the peptide text is derived from it. Bridges are numbered along the chain shown (N, C = ends). [ ]: non-standard residue; d: D form. ξ: configuration not given here. Phe(3R-OH) = O=C([C@@H](N[*:1])[C@H](O[*:3])c1ccccc1)[*:2]; Phe(3,4-(OMe)2) = COc1ccc(C[C@H](N)C(=O)O)cc1OC; Asn(3S-OH) = NC(=O)[C@@H](O)[C@H](N)C(=O)O; Leu(3R-OH) = CC(C)[C@@H](O)[C@H](N)C(=O)O; Ala(SiMe3) = C[Si](C)(C)C[C@H](N)C(=O)O; d(tBuAla) = CC(C)(C)C[C@@H](N)C(=O)O; dPhe(2-F) = N[C@H](Cc1ccccc1F)C(=O)O; tBuAla = CC(C)(C)C[C@H](N)C(=O)O; 2Pal = N[C@@H](Cc1ccccn1)C(=O)O; aThr = C[C@H](O)[C@H](N)C(=O)O; ξIle = CC[C@H](C)C(N)C(=O)O; Ac6c = NC1(C(=O)O)CCCCC1

Turning to `CC[C@H](C)[C@@H]1NC(=O)[C@@H](CCCNC(=N)N)NC(=O)[C@H](CC(C)C)NC(=O)[C@H]([C@H](O)C(C)C)NC(=O)[C@@H](NC(=O)[C@H](Cc2ccc(OC)c(OC)c2)NC(=O)[C@H](N)CC(C)(C)C)[C@@H](c2ccccc2)OC(=O)[C@H](CO)NC(=O)[C@H]([C@H](O)C(N)=O)NC(=O)CNC(=O)[C@H]([C@H](C)O)NC1=O` [Example 86, 3-tert-Butyl-D-alanyl-3-(3,4-dimethoxyphenyl)-L-alanyl-de(1-D-leucyl-2-L-leucyl)lysobactin bistri-fluoroacetate] (H-[d(tBuAla)][Phe(3,4-(OMe)2)][Phe(3R-OH)][Leu(3R-OH)]L[dR]I[aThr]G[Asn(3S-OH)]S; ester 3-C), the “MIC S. aureus 133” value in experiment [1] (setting [5]) amounted to 0.25 µg/mL (≈ 0.181 µM). Also, the “MIC S. pneumoniae” value in experiment [2] (setting [6]) was 0.125 µg/mL (≈ 0.0903 µM). Further, the “MIC E. faecalis ICB 27159” value in experiment [3] (setting [5]) is 0.5 µg/mL (≈ 0.361 µM). Also, in experiment [4] (setting [5]), the “MIC E. faecium L4001” value came to 1 µg/mL (≈ 0.722 µM).
`CC[C@H](C)[C@@H]1NC(=O)[C@@H](CCCNC(=N)N)NC(=O)[C@H](CC(C)C)NC(=O)[C@H]([C@H](O)C(C)C)NC(=O)[C@@H](NC(=O)[C@H](CC(C)C)NC(=O)[C@H](N)Cc2ccccc2F)[C@@H](c2ccccc2)OC(=O)[C@H](CO)NC(=O)[C@H]([C@H](O)C(N)=O)NC(=O)CNC(=O)[C@H]([C@H](C)O)NC1=O` [Example 23, (2-Fluoro-D-phenylalanyl)-de(1-D-leucyl)lysobactin bistrifluoroacetate] (H-[dPhe(2-F)]L[Phe(3R-OH)][Leu(3R-OH)]L[dR]I[aThr]G[Asn(3S-OH)]S; ester 3-C): the “MIC S. aureus 133” value in experiment [1] (133) was 0.125 µg/mL (≈ 0.0941 µM). Moreover, in experiment [2] (G9a), the “MIC S. pneumoniae” value was found to be 0.125 µg/mL (≈ 0.0941 µM). Also, the “MIC E. faecalis ICB 27159” value in experiment [3] (ICB 27159) was 1 µg/mL (≈ 0.753 µM). For the same compound, in experiment [4] (L4001), the “MIC E. faecium L4001” value amounted to 0.5 µg/mL (≈ 0.376 µM).
Take `CC[C@H](C)[C@@H]1NC(=O)[C@@H](CCCNC(=N)N)NC(=O)[C@H](CC(C)C)NC(=O)[C@H]([C@H](O)C(C)C)NC(=O)[C@@H](NC(=O)[C@H](Cc2ccccn2)NC(=O)[C@H](N)CC(C)(C)C)[C@@H](c2ccccc2)OC(=O)[C@H](CO)NC(=O)[C@H]([C@H](O)C(N)=O)NC(=O)CNC(=O)[C@H]([C@H](C)O)NC1=O` [Example 97, 3-tert-Butyl-D-alanyl-3-(2-pyridyl)-L-alanyl-de(1-D-leucyl-2-L-leucyl)lysobactin tristrifluoroacetate] (H-[d(tBuAla)][2Pal][Phe(3R-OH)][Leu(3R-OH)]L[dR]I[aThr]G[Asn(3S-OH)]S; ester 3-C): the “MIC S. aureus 133” value in experiment [1] (133) was determined as 1 µg/mL (≈ 0.754 µM). Also, in experiment [2] (G9a), the “MIC S. pneumoniae” value worked out at 0.125 µg/mL (≈ 0.0943 µM). The “MIC E. faecalis ICB 27159” value in experiment [3] (ICB 27159) stood at 0.5 µg/mL (≈ 0.377 µM). The “MIC E. faecium L4001” value in experiment [4] (L4001) was found to be 1 µg/mL (≈ 0.754 µM).
As for `CC[C@H](C)[C@@H]1NC(=O)[C@@H](CCCNC(=N)N)NC(=O)[C@H](CC(C)C)NC(=O)[C@H]([C@H](O)C(C)C)NC(=O)[C@@H](NC(=O)[C@H](CC(C)C)NC(=O)[C@@H](N)C[Si](C)(C)C)[C@@H](c2ccccc2)OC(=O)[C@H](CO)NC(=O)[C@H]([C@H](O)C(N)=O)NC(=O)CNC(=O)[C@H]([C@H](C)O)NC1=O` [Example 30, [3-(Trimethylsilyl)-L-alanyl]-de(1-D-leucyl)lysobactin bistrifluoroacetate] (H-[Ala(SiMe3)]L[Phe(3R-OH)][Leu(3R-OH)]L[dR]I[aThr]G[Asn(3S-OH)]S; ester 3-C), the “MIC S. aureus 133” value in experiment [1] (133) was 0.25 µg/mL (≈ 0.191 µM). In addition, the “MIC S. pneumoniae” value in experiment [2] (G9a) turned out to be 0.25 µg/mL (≈ 0.191 µM). In experiment [3] (ICB 27159), the “MIC E. faecalis ICB 27159” value came to 1 µg/mL (≈ 0.765 µM). In experiment [4] (L4001), the “MIC E. faecium L4001” value amounted to 0.5 µg/mL (≈ 0.383 µM).
As to `CC[C@H](C)C1NC(=O)[C@@H](CCCNC(=N)N)NC(=O)[C@H](CC(C)C)NC(=O)[C@H]([C@H](O)C(C)C)NC(=O)[C@@H](NC(=O)[C@H](CC(C)(C)C)NC(=O)C2(N)CCCCC2)[C@@H](c2ccccc2)OC(=O)[C@H](CO)NC(=O)[C@H]([C@H](O)C(N)=O)NC(=O)CNC(=O)[C@H]([C@H](C)O)NC1=O.O=C(O)C(F)(F)F.O=C(O)C(F)(F)F` (stereo partly drawn) [Example 105, N-[(1-Aminocyclohexyl)carbonyl]-(3-tert-butyl-D-alanyl)-de(1-D-leucyl-2-L-leucyl)lysobactin bistri-fluoroacetate] (H-[Ac6c][tBuAla][Phe(3R-OH)][Leu(3R-OH)]L[dR][ξIle][aThr]G[Asn(3S-OH)]S; ester 3-C), in experiment [1] (setting [5]), the “MIC S. aureus 133” value was 0.5 µg/mL. Also, the “MIC S. pneumoniae” value in experiment [2] (setting [6]) worked out at 0.063 µg/mL. Besides, in experiment [3] (setting [5]), the “MIC E. faecalis ICB 27159” value is 1 µg/mL. The “MIC E. faecium L4001” value in experiment [4] (setting [5]) was 0.5 µg/mL.
With `CC[C@H](C)[C@@H]1NC(=O)[C@@H](CCCNC(=N)N)NC(=O)[C@H](CC(C)C)NC(=O)[C@H]([C@H](O)C(C)C)NC(=O)[C@@H](NC(=O)[C@H](Cc2ccccc2)NC(=O)[C@H](N)CC(C)C)[C@@H](c2ccccc2)OC(=O)[C@H](CO)NC(=O)[C@H]([C@H](O)C(N)=O)NC(=O)CNC(=O)[C@H]([C@H](C)O)NC1=O.O=C(O)C(F)(F)F.O=C(O)C(F)(F)F` [Example 74, D-Leucyl-L-phenylalanyl-de(1-D-leucyl-2-L-leucyl)lysobactin bistrifluoroacetate] (H-[dL]F[Phe(3R-OH)][Leu(3R-OH)]L[dR]I[aThr]G[Asn(3S-OH)]S; ester 3-C), the “MIC S. aureus 133” value in experiment [1] (133) worked out at 0.125 µg/mL. Further, in experiment [2] (G9a), the “MIC S. pneumoniae” value is 0.063 µg/mL. The “MIC E. faecalis ICB 27159” value in experiment [3] (ICB 27159) was determined as 1 µg/mL. Moreover, the “MIC E. faecium L4001” value in experiment [4] (L4001) turned out to be 0.5 µg/mL.
Consider `CC[C@H](C)[C@@H]1NC(=O)[C@@H](CCCNC(=N)N)NC(=O)[C@H](CC(C)C)NC(=O)[C@H]([C@H](O)C(C)C)NC(=O)[C@@H](NC(=O)[C@H](CC(C)(C)C)NC(=O)[C@H](N)CC(C)C)[C@@H](c2ccccc2)OC(=O)[C@H](CO)NC(=O)[C@H]([C@H](O)C(N)=O)NC(=O)CNC(=O)[C@H]([C@H](C)O)NC1=O` [Example 3, D-leucyl-N^1-{(3S,6S,12S,15S,18R,21S,24S,27S,-28R)-6-[(1S)-2-amino-1-hydroxy-2-oxoethyl]-18-(3-{[amino(imino)methyl]amino}propyl)-12-[(1S)-1-hydroxyethyl]-3-(hydroxymethyl)-24-[(1R)-1-hydroxy-2-methylpropyl]-21-isobutyl-15-[(1S)-1-methylpropyl]-2,5,8,11,14,17,20,23,26-nonaoxo-28-phenyl-1-oxa-4,7,10,13,16,19,22,25-octaazacyclooctacosan-27-yl}-3-tert-butyl-L-alaninamide bistrifluoroacetate] (H-[dL][tBuAla][Phe(3R-OH)][Leu(3R-OH)]L[dR]I[aThr]G[Asn(3S-OH)]S; ester 3-C), for which the “MIC S. aureus 133” value in experiment [1] (133) was 0.125 µg/mL (≈ 0.0969 µM). For the same compound, the “MIC S. pneumoniae” value in experiment [2] (G9a) was 0.031 µg/mL (≈ 0.024 µM). Besides, in experiment [3] (ICB 27159), the “MIC E. faecalis ICB 27159” value stood at 0.25 µg/mL (≈ 0.194 µM). In experiment [4] (L4001), the “MIC E. faecium L4001” value came to 0.25 µg/mL (≈ 0.194 µM).

For the origin of these results see patent US7368424B2, “Acylated nonadepsipeptides” (AiCuris GmbH & Co. KG, priority 2003, dated 2008).
